Laboratory results: patent US10899738B2 (THE REGENTS OF THE UNIVERSITY OF MICHIGAN, priority 2016, dated 2021)
Like-named read-outs stand apart in the source and are kept apart here.

What was measured:
[1] = Cell growth inhibition, CellTiter-Glo Luminescent Cell Viability Assay; type: cell-based
Summary of the method: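 Cells seeded at 2,000/well with serially diluted compound and cultured 4 days at 37 °C, 5% CO2. Viability read by CellTiter-Glo luminescence; IC50 derived from dose-response.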

menin protein = menin protein (Homo sapiens (Human), UniProt O00255); assay: biochemical; type: binding; details: FP competitive binding; menin protein 4 nM, FAM-MM2 probe 2 nM; read-out: Menin Binding Affinity IC50
Chain of menin protein (O00255 whole entry): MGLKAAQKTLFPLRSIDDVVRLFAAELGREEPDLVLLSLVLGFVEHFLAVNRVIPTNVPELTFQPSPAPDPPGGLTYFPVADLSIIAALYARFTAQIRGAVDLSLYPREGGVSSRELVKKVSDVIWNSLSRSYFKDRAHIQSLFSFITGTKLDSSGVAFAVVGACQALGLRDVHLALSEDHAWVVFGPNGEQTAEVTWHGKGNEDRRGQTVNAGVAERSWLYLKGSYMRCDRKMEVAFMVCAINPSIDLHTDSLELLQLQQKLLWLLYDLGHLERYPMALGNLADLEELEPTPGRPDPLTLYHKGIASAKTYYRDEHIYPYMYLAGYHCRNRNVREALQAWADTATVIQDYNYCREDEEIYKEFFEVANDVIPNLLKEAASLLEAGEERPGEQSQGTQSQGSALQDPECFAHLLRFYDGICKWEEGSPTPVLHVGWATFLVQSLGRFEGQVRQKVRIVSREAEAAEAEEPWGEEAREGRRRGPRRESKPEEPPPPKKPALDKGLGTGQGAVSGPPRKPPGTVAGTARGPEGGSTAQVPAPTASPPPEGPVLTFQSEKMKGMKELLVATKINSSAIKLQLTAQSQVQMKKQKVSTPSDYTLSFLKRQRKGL
Summary of the method: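 Test compounds displaced FAM-MM2 (2 nM) from 4 nM menin after 30 min equilibration at room temperature in PBS buffer containing bovine γ-globulin, 4% DMSO and Triton X-100. Binding was followed by fluorescence polarization. Competition curves were fitted by nonlinear regression to give IC50 and Ki.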

[2] = MOLM-13, 96 h, read-out: Cell Growth Inhibition IC50 (μM) MOLM13, MOLM13 cells, 4 days, CellTiter-Glo
[3] = MV4-11, 96 h, read-out: Cell Growth Inhibition IC50 (μM) MV4, 11, MV4, 11 cells, 4 days, CellTiter-Glo
[4] = MOLM-13, 96 h, MOLM13 cells, 4 days, CellTiter-Glo, read-out: Cell Growth Inhibition IC50 (μM) MOLM13
[5] = MV4-11, 96 h, MV4, 11 cells, 4 days, CellTiter-Glo, read-out: Cell Growth Inhibition IC50 (μM) MV4, 11

| SMILES | IC50 [1, 2] [µM] | IC50 [1, 3] [µM] | IC50 (menin protein) [nM] | IC50 ([1]; read-out: Cell Growth Inhibition IC50 (μM) MOLM13, MOLM13 cells, 4 days, CellTiter-Glo) [µM] | IC50 ([1]; read-out: Cell Growth Inhibition IC50 (μM) MV4, 11, MV4, 11 cells, 4 days, CellTiter-Glo) [µM] | IC50 [1, 4] [µM] | IC50 [1, 5] [µM] |
| --- | --- | --- | --- | --- | --- | --- | --- |
| CC(=O)O[C@H]1CCC[C@@H]1C1(C2CCN(CC3CN(c4ccc(S(=O)(=O)C5CC5)cc4)C3)CC2)CN(C)Cc2ccc(F)cc21 (mixture of isomers) [compound 316, rac-(1S,2R)-2-(4-(1-((1-(4-(cyclopropylsulfonyl)phenyl)azetidin-3-yl)methyl)piperidin-4-yl)-6-fluoro-2-methyl-1,2,3,4-tetrahydroisoquinolin-4-yl)cyclopentyl acetate] | 1.8 | 0.3 | 3 |  |  |  |  |
| CNC(=O)O[C@H]1CCC[C@@H]1C(C#N)(c1ccccc1)C1CCN(CC2CN(c3ccc(S(=O)(=O)c4ccn(C)n4)cc3)C2)CC1 (mixture of isomers) [compound 230, rac-(1S,2R)-2-(cyano(1-((1-(4-((1-methyl-1H-pyrazol-3-yl)sulfonyl)phenyl)azetidin-3-yl)methyl)piperidin-4-yl)(phenyl)methyl) cyclopentyl methylcarbamate] | 0.25 | 0.092 | 7 |  |  |  |  |
| CNC(=O)O[C@H]1CCC[C@@H]1C(Cn1ccnc1)(c1ccccc1)C1CCN(CC2CN(c3ccc(S(=O)(=O)c4ccc(C(=O)O)cc4)cc3)C2)CC1 (mixture of isomers) [compound 362, rac-4-((4-(3-((4-(2-(1H-imidazol-1-yl)-1-((1R,2S)-2-((methylcarbamoyl)oxy)cyclopentyl)-1-phenylethyl)piperidin-1-yl)methyl)azetidin-1-yl)phenyl)sulfonyl)benzoic acid] |  |  | 8 | > 10 | 4.79 |  |  |
| CCN1Cc2ccccc2C(C2CCN(CC3CN(c4ccc(S(=O)(=O)c5ccn(C)c5)cc4)C3)CC2)([C@H]2CCC[C@@H]2NC(=O)NC)C1 (mixture of isomers) [compound 375, rac-1-((1S,2R)-2-(2-ethyl-4-(1-((1-(4-((1-methyl-1H-pyrrol-3-yl)sulfonyl)phenyl)azetidin-3-yl)methyl)piperidin-4-yl)-1,2,3,4-tetrahydroisoquinolin-4-yl)cyclopentyl)-3-methylurea] | 1.73 | 0.39 | 11 |  |  |  |  |
| CNC(=O)O[C@H]1CCC[C@@H]1C(C#N)(c1ccccc1)C1CCN(CC2(C)CN(c3ccc(S(=O)(=O)c4cnn(C)c4)cc3)C2)CC1 (mixture of isomers) [compound 372, rac-(1S,2R)-2-(cyano(1-((3-methyl-1-(4-((1-methyl-1H-pyrazol-4-yl)sulfonyl)phenyl)azetidin-3-yl)methyl)piperidin-4-yl)(phenyl)methyl)cyclopentyl methylcarbamate] | 5.01 | 2.03 | 48 |  |  |  |  |
| CCN1Cc2ccccc2C(C2CCCC2)(C2CCN(CC3CN(c4ccc(S(=O)(=O)C5CC5)cc4)C3)C(C)C2)C1 (stereo not drawn) [compound 94, 4-cyclopentyl-4-(1-((1-(4-(cyclopropylsulfonyl)phenyl)azetidin-3-yl)methyl)-2-methylpiperidin-4-yl)-2-ethyl-1,2,3,4-tetrahydroisoquinoline] |  |  | 29 |  |  | 2.3 | 2 |
| COC(=O)N[C@H]1CCC[C@@H]1C(C#N)(c1ccccc1)C1CCN(CC2(C)CN(c3ccc(S(=O)(=O)c4cnn(C)c4)cc3)C2)CC1 (mixture of isomers) [compound 398, methyl rac-((1S,2R)-2-(cyano(1-((3-methyl-1-(4-((1-methyl-1H-pyrazol-4-yl)sulfonyl)phenyl)azetidin-3-yl)methyl)piperidin-4-yl)(phenyl)methyl)cyclopentyl) carbamate] | > 10 | 4.57 | 167 |  |  |  |  |
| O=S(=O)(c1ccc(N2CC(CN3CCC(C4(C5CCCC5)NCCc5ccccc54)CC3)C2)cc1)C1CC1 (stereo not drawn) [compound 135, 1-cyclopentyl-1-(1-((1-(4-(cyclopropylsulfonyl)phenyl)azetidin-3-yl)methyl)piperidin-4-yl)-1,2,3,4-tetrahydroisoquinoline] |  |  | 25 |  |  | 2.1 ± 1 | 1.3 ± 0.4 |
| CNC(=O)O[C@H]1CCC[C@@H]1C(C#N)(c1ccccc1)C1CCN(CC2CN(c3ccc(C(F)(F)F)cc3)C2)CC1 (mixture of isomers) [compound 367, rac-(1S,2R)-2-(cyano(phenyl)(1-((1-(4-(trifluoromethyl)phenyl)azetidin-3-yl)methyl)piperidin-4-yl)methyl)cyclopentyl methylcarbamate] | 2.96 | 1.66 | 30 |  |  |  |  |
| CCN1Cc2ccccc2C(C2CCCC2)(C2CCN(CC3CN(c4ccc(S(=O)(=O)c5ccn(C)c5)cc4)C3)CC2)C1 (stereo not drawn) [compound 101, 4-cyclopentyl-2-ethyl-4-(1-((1-(4-((1-methyl-1H-pyrrol-3-yl)sulfonyl)phenyl)azetidin-3-yl)methyl)piperidin-4-yl)-1,2,3,4-tetrahydroisoquinoline] |  |  | 10 |  |  | 0.73 | 0.3 |
| N#Cc1ccc(OCCCN2CCC(C3(C4CCCC4)CNCc4ccccc43)CC2)cc1 (stereo not drawn) [compound 19, 4-(3-(4-(4-cyclopentyl-1,2,3,4-tetrahydroisoquinolin-4-yl)piperidin-1-yl)propoxy)benzonitrile] | 7.3 | 1.6 ± 0.1 | 61 |  |  |  |  |
| CC(=O)N[C@H]1CCC[C@@H]1C1(C2CCN(CC3CN(c4ccc(S(=O)(=O)c5ccncc5)cc4)C3)CC2)CN(C)Cc2ccccc21 (mixture of isomers) [compound 271, rac-N-((1S,2R)-2-(2-methyl-4-(1-((1-(4-(pyridin-4-ylsulfonyl)phenyl)azetidin-3-yl)methyl)piperidin-4-yl)-1,2,3,4-tetrahydroisoquinolin-4-yl)cyclopentyl)acetamide] | 0.717 ± 0.002 | 0.123 ± 0.043 | 5 |  |  |  |  |
| CC(C)N1Cc2ccccc2C(C2CCCC2)(C2CCN(CC3CN(c4ccc(S(=O)(=O)c5ccncc5)cc4)C3)CC2)C1 (stereo not drawn) [compound 48, 4-cyclopentyl-2-isopropyl-4-(1-((1-(4-(pyridin-4-ylsulfonyl)phenyl)azetidin-3-yl)methyl)piperidin-4-yl)-1,2,3,4-tetrahydroisoquinoline] |  |  | 7 |  |  | 2.8 | 0.908 |
| CC(=O)N[C@H]1CCC[C@@H]1C(Cn1ccnc1)(c1ccccc1)C1CCN(CC2CN(c3ccc(S(=O)(=O)c4ccccc4)cc3)C2)CC1 (mixture of isomers) [compound 381, rac-N-((1S,2R)-2-(2-(1H-imidazol-1-yl)-1-phenyl-1-(1-((1-(4-(phenylsulfonyl)phenyl)azetidin-3-yl)methyl)piperidin-4-yl)ethyl)cyclopentyl) acetamide] | 0.67 | 0.14 | 13 |  |  |  |  |
| CNC(=O)N[C@H]1CCC[C@@H]1C1(C2CCN(CC3CN(c4ccc(S(=O)(=O)C5CC5)cc4)C3)CC2)CN(C)Cc2ccccc21 (mixture of isomers) [compound 283, rac-1-((1S,2R)-2-(4-(1-((1-(4-(cyclopropylsulfonyl)phenyl)azetidin-3-yl)methyl)piperidin-4-yl)-2-methyl-1,2,3,4-tetrahydroisoquinolin-4-yl)cyclopentyl)-3-methylurea] | 0.53 | 0.21 | 10 |  |  |  |  |
| CNC(=O)O[C@H]1CCC[C@@H]1C(C#N)(c1ccccc1)C1CCN(C2CCN(c3ccc(S(=O)(=O)c4ccccc4)cc3)CC2)CC1 (mixture of isomers) [compound 234, rac-(1S,2R)-2-(cyano(phenyl)(1′-(4-(phenylsulfonyl)phenyl)-[1,4′-bipiperidin]-4-yl)methyl)cyclopentyl methylcarbamate] | 6.41 | 1.11 | 50 |  |  |  |  |
| CNC(=O)N[C@H]1CCC[C@@H]1C1(C2CCN(CC3CN(c4ccc(S(=O)(=O)C5CC5)cc4)C3)CC2)CNCc2ccccc21 (mixture of isomers) [compound 285, rac-1-((1S,2R)-2-(4-(1-((1-(4-(cyclopropylsulfonyl)phenyl)azetidin-3-yl)methyl)piperidin-4-yl)-1,2,3,4-tetrahydroisoquinolin-4-yl)cyclopentyl)-3-methylurea] | 12.4 | 2.48 | 9 |  |  |  |  |
| CC(C)S(=O)(=O)c1ccc(N2CC(CN3CCC(C4(C5CCCC5)NCCc5ccccc54)CC3)C2)cc1 (stereo not drawn) [compound 134, 1-cyclopentyl-1-(1-((1-(4-(isopropylsulfonyl)phenyl)azetidin-3-yl)methyl)piperidin-4-yl)-1,2,3,4-tetrahydroisoquinoline] |  |  | 67 |  |  | 3.8 | 1.1 |
| CCN1Cc2ccccc2C(C2CCCC2)(C2CCN(CC3CN(c4ccc(S(=O)(=O)C(F)(F)F)cc4)C3)CC2)C1 (stereo not drawn) [compound 145, 4-cyclopentyl-2-ethyl-4-(1-((1-(4-((trifluoromethyl)sulfonyl)phenyl)azetidin-3-yl)methyl)piperidin-4-yl)-1,2,3,4-tetrahydroisoquinoline] |  |  | 15 |  |  | 3.3 ± 0.5 | 1.6 ± 0.8 |
| CC(=O)N[C@H]1CCC[C@@H]1C1(C2CCN(CC3CN(c4ccc(S(=O)(=O)c5cnn(C)c5)cc4)C3)CC2)CNCc2ccccc21 (mixture of isomers) [compound 286, rac-N-((1S,2R)-2-(4-(1-((1-(4-((1-methyl-1H-pyrazol-4-yl)sulfonyl)phenyl)azetidin-3-yl)methyl)piperidin-4-yl)-1,2,3,4-tetrahydroisoquinolin-4-yl)cyclopentyl)acetamide] | 5.69 | 0.48 | 4 |  |  |  |  |
